In the experiment the test system is Agrobacterium vitis. Briefly: Inhibition of growth of Agrobacterium vitis strains on PDA plates (diameters of inhibitory zones). In kind it is cell-based. To be noted: 3% v/v; 6 strains; 28° C., 2-5 days. As for the experimental part:
The biological efficacy of the test agents was determined in terms of inhibition of the growth. To this aim 6 strains of Agrobacterium vitis from different growing areas worldwide, were grown in vitro. The strains of A. vitis, were inoculated on Petri dishes containing PDA (Potato Dextrose Agar), in the ratio of approximately 10 to 8 cells. After plating the bacteria, 5 holes (6 mm) were drilled in the substrate (one at the center of the plate and 4 equally spaced around the central hole). Each plate was filled with 20 microliters of test substance at the concentrations indicated; for each substance and concentration, 3 replies were set up. The central hole was filled with 20 microliters of sterile water, which represented the untreated control. The plates were incubated at 28° C., for 2-5 days.
After the expiration of the incubation period, for each tested strain and for each substance and concentration, the diameters of the inhibitory zones were considered (average of two orthogonal diameters of each inhibitory area). The collected data were subjected to analysis of variance ANOVA and comparison of averages with SNK test.

For the compound `OCl` [Sodium Hypochlorite], the “inhibition of the growth (inhibitory zones)” value is recorded as “completely inhibited”.

The values are drawn from patent US20180132485A1, “USE OF HYDROXYAPATITE AS A CARRIER OF NUTRITIONAL ELEMENTS AND VEGETAL EXTRACTS FOR TREATING PLANTS” (NDG NATURAL DEVELOPMENT GROUP S.R.L., priority 2015, published 2018).
